The results in this text go back to patent US9205077B2, “2-alkoxy-substituted dicyanopyridines and their use” (Bayer Intellectual Property GmbH, priority 2008, dated 2015).

Common to all, as to type: cell-based
One assay has as its target T1, adenosine A2a receptor (Homo sapiens, UniProt P29274).
T1 construct: expressed in transfected cells; host or cells: CHO (Chinese Hamster Ovary) permanent line, stably transfected
The assay can be described thus: Indirect determination of the adenosine agonism by way of gene expression (luciferase reporter), A2a cells. To be noted: CHO cells stably transfected with A2a receptor cDNA; 50% of maximum stimulation of luciferase. From the text: (§1) B-1. Indirect Determination of the Adenosine Agonism by Way of Gene Expression
(§2) Cells of the CHO (Chinese Hamster Ovary) permanent line are transfected stably with the cDNA for the adenosine receptor subtypes A1, A2a and A2b. The adenosine A1 receptors are coupled to the adenylate cyclase by way of Gi proteins, while the adenosine A2a and A2b receptors are coupled by way of Gs proteins. In correspondence with this, the formation of cAMP in the cell is inhibited or stimulated, respectively. After that, expression of the luciferase is modulated by way of a cAMP-dependent promoter. The luciferase test is optimized, with the aim of high sensitivity and reproducibility, low variance and good suitability for implementation on a robot system, by varying several test parameters, such as cell density, duration of the growth phase and the test incubation, forskolin concentration and medium composition. The following test protocol is used for pharmacologically characterizing cells and for the robot-assisted substance screening:
(§3) The stock cultures are grown, at 37° C. and under 5% CO2, in DMEM/F12 medium containing 10% FCS (fetal calf serum) and in each case split 1:10 after 2-3 days. Test cultures are seeded in 384-well plates with 2000 cells per well and grown at 37° C. for approx. 48 hours. The medium is then replaced with a physiological sodium chloride solution (130 mM sodium chloride, 5 mM potassium chloride, 2 mM calcium chloride, 20 mM HEPES, 1 mM magnesium chloride hexahydrate, 5 mM sodium bicarbonate, pH 7.4). The substances to be tested, which are dissolved in DMSO, are pipetted into the test cultures (maximum final concentration of DMSO in the test mixture: 0.5%) in a dilution series of from 5×10^−11 M to 3×10^−6 M (final concentration). 10 minutes later, forskolin is added to the A1 cells and all the cultures are subsequently incubated at 37° C. for four hours. After that, 35 μl of a solution which is composed of 50% lysis reagent (30 mM disodium hydrogenphosphate, 10% glycerol, 3% TritonX100, 25 mM TrisHCl, 2 mM dithiotreitol (DTT), pH 7.8) and 50% luciferase substrate solution (2.5 mM ATP, 0.5 mM luciferin, 0.1 mM coenzyme A, 10 mM tricine, 1.35 mM magnesium sulphate, 15 mM DTT, pH 7.8) are added to the test cultures, which are shaken for approx. 1 minute and the luciferase activity is measured using a camera system. The EC50 values are determined, i.e., the concentrations at which 50% of the luciferase response is inhibited in the case of the A1 cell, and, respectively, 50% of the maximum stimulation with the corresponding substance is achieved in the case of the A2b and A2a cells. […] Pharmacol., 357, 1-9 (1998)).
On the technique in general: Reporter assays use an easily measured gene product as a stand-in for the process of interest.

The next assay deals with T2, adenosine A2b receptor (Homo sapiens, UniProt P29275).
T2 construct: expressed in transfected cells; host or cells: CHO (Chinese Hamster Ovary) permanent line, stably transfected
T2 sequence (P29275 1-332): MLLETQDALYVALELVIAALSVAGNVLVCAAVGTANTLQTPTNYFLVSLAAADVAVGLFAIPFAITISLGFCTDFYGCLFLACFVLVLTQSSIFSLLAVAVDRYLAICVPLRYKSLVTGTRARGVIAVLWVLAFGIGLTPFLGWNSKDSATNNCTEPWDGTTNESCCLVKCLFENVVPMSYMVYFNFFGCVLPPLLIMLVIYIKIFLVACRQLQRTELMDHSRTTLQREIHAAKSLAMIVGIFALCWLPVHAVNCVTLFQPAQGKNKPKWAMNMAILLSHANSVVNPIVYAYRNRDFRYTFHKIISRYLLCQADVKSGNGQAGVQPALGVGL
The assay can be described thus: Indirect determination of the adenosine agonism by way of gene expression (luciferase reporter), A2b cells. The note with it: CHO cells stably transfected with A2b receptor cDNA; 50% of maximum stimulation of luciferase.
Text: as §1, §2, §3

The next assay deals with T3, adenosine A1 receptor (Homo sapiens, UniProt P30542).
T3 construct: expressed in transfected cells; host or cells: CHO (Chinese Hamster Ovary) permanent line, stably transfected
T3 sequence (P30542 1-326): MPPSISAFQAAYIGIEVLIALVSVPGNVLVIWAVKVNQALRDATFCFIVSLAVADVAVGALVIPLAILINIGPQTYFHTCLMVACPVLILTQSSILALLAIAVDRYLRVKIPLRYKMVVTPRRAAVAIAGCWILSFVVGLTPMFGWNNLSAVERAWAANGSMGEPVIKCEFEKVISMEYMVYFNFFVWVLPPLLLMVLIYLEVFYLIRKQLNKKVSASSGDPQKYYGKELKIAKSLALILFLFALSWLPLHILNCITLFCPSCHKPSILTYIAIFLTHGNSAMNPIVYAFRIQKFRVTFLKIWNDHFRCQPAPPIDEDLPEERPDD
The assay can be described thus: Indirect determination of the adenosine agonism by way of gene expression (luciferase reporter), A1 cells. To be noted: CHO cells stably transfected with A1 receptor cDNA; 1 μM forskolin; 50% inhibition of luciferase response.
Text: as §1, §2, §3

T1 sequence (P29274 whole entry): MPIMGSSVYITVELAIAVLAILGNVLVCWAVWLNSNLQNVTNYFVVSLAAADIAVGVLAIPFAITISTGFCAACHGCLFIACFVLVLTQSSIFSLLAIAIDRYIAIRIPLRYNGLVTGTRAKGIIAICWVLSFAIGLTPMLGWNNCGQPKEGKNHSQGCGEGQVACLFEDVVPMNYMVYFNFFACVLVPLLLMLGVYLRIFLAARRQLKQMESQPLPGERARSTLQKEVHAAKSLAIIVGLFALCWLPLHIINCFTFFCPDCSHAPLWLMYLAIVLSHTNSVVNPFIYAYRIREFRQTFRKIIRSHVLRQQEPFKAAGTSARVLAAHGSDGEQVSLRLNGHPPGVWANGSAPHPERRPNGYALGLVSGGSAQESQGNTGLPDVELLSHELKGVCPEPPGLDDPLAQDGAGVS

By EC50 is commonly meant the concentration at which the effect is half-maximal. The low end stands for higher potency in that assay, the high end for lower potency in that assay. On to `CCCOc1nc(SCc2csc(-c3ccc(Cl)cc3)n2)c(C#N)c(-c2ccccc2)c1C#N` [Example 1, 2-({[2-(4-Chlorophenyl)-1,3-thiazol-4-yl]methyl}sulphanyl)-4-phenyl-6-propoxypyridine-3,5-dicarbonitrile], for which the figures for the half-maximal effective concentration (EC50) on adenosine A2a receptor, at adenosine A2b receptor and at adenosine A1 receptor were more than 3000 nM, more than 3000 nM and 1.3 nM, respectively.

`N#Cc1c(OCCCO)nc(SCc2csc(-c3ccc(Cl)cc3)n2)c(C#N)c1-c1ccccc1` [Example 2, 2-({[2-(4-Chlorophenyl)-1,3-thiazol-4-yl]methyl}sulphanyl)-6-(3-hydroxypropoxy)-4-phenylpyridine-3,5-dicarbonitrile]: the results for the EC50 on adenosine A2a receptor, at adenosine A2b receptor and on adenosine A1 receptor were more than 3000 nM, 534 nM and 0.7 nM, respectively.

As for `N#Cc1c(OCCCO)nc(SCc2csc(-c3ccc(Cl)cc3)n2)c(C#N)c1-c1ccc(OCCO)cc1` [Example 3, 2-({[2-(4-Chlorophenyl)-1,3-thiazol-4-yl]methyl}sulphanyl)-4-[4-(2-hydroxyethoxy)phenyl]-6-(3-hydroxypropoxy)pyridine-3,5-dicarbonitrile], the 50% effective concentration (EC50) at adenosine A2a receptor turned out to be 689 nM; on adenosine A2b receptor it was 263 nM; on adenosine A1 receptor it was 0.6 nM.

As for `N#Cc1c(OCCCO)nc(SCc2csc(-c3ccc(Cl)cc3)n2)c(C#N)c1-c1cncs1` [Example 6, 2-({[2-(4-Chlorophenyl)-1,3-thiazol-4-yl]methyl}sulphanyl)-6-(3-hydroxypropoxy)-4-(1,3-thiazol-5-yl)pyridine-3,5-dicarbonitrile], the half-maximal effective concentration (EC50) on adenosine A2a receptor was more than 3000 nM; on adenosine A2b receptor, more than 3000 nM; at adenosine A1 receptor, 5.7 nM.

Consider `COc1nc(SCc2csc(-c3ccc(Cl)cc3)n2)c(C#N)c(-c2ccc(OCCO)cc2)c1C#N` [Example 8, 2-({[2-(4-Chlorophenyl)-1,3-thiazol-4-yl]methyl}sulphanyl)-4-[4-(2-hydroxyethoxy)phenyl]-6-methoxypyridine-3,5-dicarbonitrile], for which the EC50 on adenosine A2a receptor turned out to be 1220 nM; at adenosine A2b receptor it was 105 nM; at adenosine A1 receptor, 0.3 nM.

In the case of `COc1cccc(CSc2nc(OC)c(C#N)c(-c3ccc(OCCO)cc3)c2C#N)c1` [Example 11, 4-[4-(2-Hydroxyethoxy)phenyl]-2-methoxy-6-[(3-methoxybenzyl)sulphanyl]pyridine-3,5-dicarbonitrile], the EC50 on adenosine A2a receptor was 1110 nM; on adenosine A2b receptor, more than 3000 nM; at adenosine A1 receptor, 0.8 nM.

As for `COc1nc(SCc2cccnc2)c(C#N)c(-c2ccc(OCCO)cc2)c1C#N` [Example 12, 4-[4-(2-Hydroxyethoxy)phenyl]-2-methoxy-6-[(pyridin-3-ylmethyl)sulphanyl]pyridine-3,5-dicarbonitrile], the values for the half-maximal effective concentration (EC50) at adenosine A2a receptor, on adenosine A2b receptor and at adenosine A1 receptor were 547 nM, more than 3000 nM and 1.2 nM, respectively.

On to `CCOc1nc(SCc2coc(-c3ccc(Cl)cc3)n2)c(C#N)c(-c2ccc(OCCO)cc2)c1C#N` [Example 15, 2-({[2-(4-Chlorophenyl)-1,3-oxazol-4-yl]methyl}sulphanyl)-6-ethoxy-4-[4-(2-hydroxyethoxy)-phenyl]pyridine-3,5-dicarbonitrile], for which the EC50 was more than 3000 nM at adenosine A2a receptor, more than 3000 nM at adenosine A2b receptor and 4.8 nM at adenosine A1 receptor.

Regarding `CCOc1nc(SCc2csc(-c3ccc(Cl)cc3)n2)c(C#N)c(-c2ccc(OCCO)cc2)c1C#N` [Example 16, 2-({[2-(4-Chlorophenyl)-1,3-thiazol-4-yl]methyl}sulphanyl)-6-ethoxy-4-[4-(2-hydroxyethoxy)-phenyl]pyridine-3,5-dicarbonitrile], the figures for the EC50 on adenosine A2a receptor, on adenosine A2b receptor and on adenosine A1 receptor were 527 nM, more than 3000 nM and 0.8 nM, respectively.

As for `CNC(=O)c1cc(CSc2nc(OCCO)c(C#N)c(-c3ccccc3)c2C#N)ccn1` [Example 18, 4-({[3,5-Dicyano-6-(2-hydroxyethoxy)-4-phenylpyridin-2-yl]thio}methyl)-N-methylpyridine-2-carboxamide], the figures for the EC50 on adenosine A2a receptor, on adenosine A2b receptor and on adenosine A1 receptor were 1740 nM, more than 3000 nM and 0.3 nM, respectively.

As for `N#Cc1c(OCCO)nc(SCc2csc(-c3ccc(Cl)cc3)n2)c(C#N)c1-c1ccc(OCCO)cc1` [Example 19], the concentration for a half-maximal effect (EC50) on adenosine A2a receptor was determined as 685 nM; at adenosine A2b receptor it was 177 nM; at adenosine A1 receptor it was 0.5 nM.

For the molecule `COc1nc(SCc2c[nH]cn2)c(C#N)c(-c2ccc(OCCO)cc2)c1C#N` [Example 21, Formic acid 4-[4-(2-hydroxyethoxy)phenyl]-2-[(1H-imidazol-4-ylmethyl)sulphanyl]-6-methoxypyridine-3,5-dicarbonitrile (1:1)], the concentration giving a half-maximal response (EC50) on adenosine A2a receptor is more than 3000 nM; at adenosine A2b receptor, 28.6 nM; at adenosine A1 receptor, 73.2 nM.

`COc1nc(SCc2csc(-c3ccc(Cl)cc3)n2)c(C#N)c(-c2ccc(OC[C@@H](O)CO)cc2)c1C#N` [Example 22, 2-({[2-(4-Chlorophenyl)-1,3-thiazol-4-yl]methyl}sulphanyl)-4-(4-{[(2S)-2,3-dihydroxypropyl]-oxy}phenyl)-6-methoxypyridine-3,5-dicarbonitrile]: the concentration for a half-maximal effect (EC50) at adenosine A2a receptor amounted to 1260 nM; at adenosine A2b receptor it was 142 nM; at adenosine A1 receptor, 2.1 nM.
